From ChEMBL document CHEMBL5649169 (ChemMedChem, 2018)

Tests used:
[1] = target: Microfibrillar-associated protein 1 (Homo sapiens) (UniProt P55081)
[2] = target: V-type proton ATPase 16 kDa proteolipid subunit c (Homo sapiens) (UniProt P27449)
[3] = species on record: Homo sapiens
[4] = target: Vacuolar protein sorting-associated protein 51 homolog (Homo sapiens) (UniProt Q9UID3)
[5] = target: Phosphorylated adapter RNA export protein (Homo sapiens) (UniProt Q9H814)
[6] = target: Heterogeneous nuclear ribonucleoprotein D-like (Homo sapiens) (UniProt O14979)
Chain of Heterogeneous nuclear ribonucleoprotein D-like (Homo sapiens) (O14979 whole entry): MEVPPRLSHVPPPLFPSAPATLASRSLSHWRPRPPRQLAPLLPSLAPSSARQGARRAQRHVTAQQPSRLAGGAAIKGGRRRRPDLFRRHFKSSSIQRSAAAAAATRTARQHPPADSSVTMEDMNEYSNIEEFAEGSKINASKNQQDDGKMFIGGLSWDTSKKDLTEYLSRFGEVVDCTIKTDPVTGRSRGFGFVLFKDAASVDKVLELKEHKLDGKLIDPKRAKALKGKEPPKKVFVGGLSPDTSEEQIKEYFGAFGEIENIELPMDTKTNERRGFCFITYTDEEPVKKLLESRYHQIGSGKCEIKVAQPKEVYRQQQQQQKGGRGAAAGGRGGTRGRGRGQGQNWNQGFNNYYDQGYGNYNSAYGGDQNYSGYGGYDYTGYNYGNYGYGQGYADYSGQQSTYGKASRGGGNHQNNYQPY

[7] = target: Retinoblastoma-binding protein 5 (Homo sapiens) (UniProt Q15291)
[8] = target: Tektin-1 (Homo sapiens) (UniProt Q969V4)
Chain of Tektin-1 (Homo sapiens) (Q969V4 whole entry, the tested form may be a part): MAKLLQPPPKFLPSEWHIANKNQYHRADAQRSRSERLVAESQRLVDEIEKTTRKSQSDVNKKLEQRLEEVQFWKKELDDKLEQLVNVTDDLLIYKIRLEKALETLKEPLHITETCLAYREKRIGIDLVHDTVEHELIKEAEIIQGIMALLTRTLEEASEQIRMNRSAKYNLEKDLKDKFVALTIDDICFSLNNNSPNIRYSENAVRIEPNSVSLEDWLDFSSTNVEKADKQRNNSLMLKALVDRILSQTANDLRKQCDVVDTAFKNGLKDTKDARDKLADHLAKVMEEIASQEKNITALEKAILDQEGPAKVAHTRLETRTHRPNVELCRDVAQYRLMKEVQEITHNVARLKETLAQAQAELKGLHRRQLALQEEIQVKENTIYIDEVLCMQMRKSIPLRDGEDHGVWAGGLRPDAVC

[9] = target: Mitotic deacetylase-associated SANT domain protein (Homo sapiens) (UniProt Q6PJG2)
Chain of Mitotic deacetylase-associated SANT domain protein (Homo sapiens) (Q6PJG2 whole entry, the tested form may be a part): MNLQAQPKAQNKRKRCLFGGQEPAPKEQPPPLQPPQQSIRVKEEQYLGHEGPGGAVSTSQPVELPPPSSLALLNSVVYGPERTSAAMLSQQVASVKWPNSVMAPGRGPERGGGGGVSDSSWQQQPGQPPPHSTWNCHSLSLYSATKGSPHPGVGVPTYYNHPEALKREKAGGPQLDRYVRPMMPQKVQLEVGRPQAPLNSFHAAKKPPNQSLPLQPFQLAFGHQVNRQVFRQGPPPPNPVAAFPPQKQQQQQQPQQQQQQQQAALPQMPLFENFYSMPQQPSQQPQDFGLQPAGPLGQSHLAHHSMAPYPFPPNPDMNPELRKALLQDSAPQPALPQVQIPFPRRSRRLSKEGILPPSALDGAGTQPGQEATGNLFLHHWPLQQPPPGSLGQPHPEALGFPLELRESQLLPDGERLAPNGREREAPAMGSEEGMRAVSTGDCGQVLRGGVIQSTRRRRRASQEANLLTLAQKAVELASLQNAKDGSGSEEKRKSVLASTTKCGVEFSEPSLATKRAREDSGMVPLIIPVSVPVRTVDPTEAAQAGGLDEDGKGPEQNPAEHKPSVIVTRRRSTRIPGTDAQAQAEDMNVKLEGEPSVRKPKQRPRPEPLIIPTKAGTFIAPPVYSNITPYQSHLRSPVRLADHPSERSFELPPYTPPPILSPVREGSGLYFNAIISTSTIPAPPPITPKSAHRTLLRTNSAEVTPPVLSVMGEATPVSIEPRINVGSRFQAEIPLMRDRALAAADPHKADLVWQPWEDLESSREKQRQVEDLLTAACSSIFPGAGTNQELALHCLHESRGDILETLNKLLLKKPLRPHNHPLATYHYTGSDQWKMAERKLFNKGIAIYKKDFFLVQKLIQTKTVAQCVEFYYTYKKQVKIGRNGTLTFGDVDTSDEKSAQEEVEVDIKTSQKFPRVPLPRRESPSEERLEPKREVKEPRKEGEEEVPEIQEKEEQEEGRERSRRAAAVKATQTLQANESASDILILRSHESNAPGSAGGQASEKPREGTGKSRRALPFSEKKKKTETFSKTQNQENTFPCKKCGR

[10] = target: OCIA domain-containing protein 1 (Homo sapiens) (UniProt Q9NX40)
[11] = species on record: Homo sapiens; remark: listed apart in the source
[12] = target: STE20-related kinase adapter protein alpha (Homo sapiens) (UniProt Q7RTN6)
[13] = target: Testis-expressed protein 10 (Homo sapiens) (UniProt Q9NXF1)
[14] = target: Lanosterol synthase (Homo sapiens) (UniProt P48449)
[15] = target: Parathymosin (Homo sapiens) (UniProt P20962)
Chain of Parathymosin (Homo sapiens) (P20962 whole entry): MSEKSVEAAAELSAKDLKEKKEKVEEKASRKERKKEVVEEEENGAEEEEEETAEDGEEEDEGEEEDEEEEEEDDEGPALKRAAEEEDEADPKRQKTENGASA

[16] = target: Inositol 1,4,5-trisphosphate-gated calcium channel ITPR1 (Homo sapiens) (UniProt Q14643)
[17] = species on record: Homo sapiens; remark: listed apart in the source
[18] = target: Lipid scramblase CLPTM1L (Homo sapiens) (UniProt Q96KA5)
[19] = target: Copine-4 (Homo sapiens) (UniProt Q96A23)
[20] = target: Receptor for retinol uptake STRA6 (Homo sapiens) (UniProt Q9BX79)
[21] = target: Pyruvate dehydrogenase protein X component, mitochondrial (Homo sapiens) (UniProt O00330)
[22] = target: Phosphatidylinositol 4,5-bisphosphate 3-kinase catalytic subunit beta isoform (Homo sapiens) (UniProt P42338)
[23] = target: Ribosome biogenesis protein WDR12 (Homo sapiens) (UniProt Q9GZL7)
[24] = target: Signal recognition particle 19 kDa protein (Homo sapiens) (UniProt P09132)
Chain of Signal recognition particle 19 kDa protein (Homo sapiens) (P09132 whole entry): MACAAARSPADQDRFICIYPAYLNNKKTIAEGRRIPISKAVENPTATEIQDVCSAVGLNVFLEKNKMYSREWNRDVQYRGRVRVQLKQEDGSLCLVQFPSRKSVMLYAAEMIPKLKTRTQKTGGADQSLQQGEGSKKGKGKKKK

[25] = target: Kelch-like protein 6 (Homo sapiens) (UniProt Q8WZ60)
[26] = target: Translation initiation factor eIF2B subunit epsilon (Homo sapiens) (UniProt Q13144)
Chain of Translation initiation factor eIF2B subunit epsilon (Homo sapiens) (Q13144 whole entry): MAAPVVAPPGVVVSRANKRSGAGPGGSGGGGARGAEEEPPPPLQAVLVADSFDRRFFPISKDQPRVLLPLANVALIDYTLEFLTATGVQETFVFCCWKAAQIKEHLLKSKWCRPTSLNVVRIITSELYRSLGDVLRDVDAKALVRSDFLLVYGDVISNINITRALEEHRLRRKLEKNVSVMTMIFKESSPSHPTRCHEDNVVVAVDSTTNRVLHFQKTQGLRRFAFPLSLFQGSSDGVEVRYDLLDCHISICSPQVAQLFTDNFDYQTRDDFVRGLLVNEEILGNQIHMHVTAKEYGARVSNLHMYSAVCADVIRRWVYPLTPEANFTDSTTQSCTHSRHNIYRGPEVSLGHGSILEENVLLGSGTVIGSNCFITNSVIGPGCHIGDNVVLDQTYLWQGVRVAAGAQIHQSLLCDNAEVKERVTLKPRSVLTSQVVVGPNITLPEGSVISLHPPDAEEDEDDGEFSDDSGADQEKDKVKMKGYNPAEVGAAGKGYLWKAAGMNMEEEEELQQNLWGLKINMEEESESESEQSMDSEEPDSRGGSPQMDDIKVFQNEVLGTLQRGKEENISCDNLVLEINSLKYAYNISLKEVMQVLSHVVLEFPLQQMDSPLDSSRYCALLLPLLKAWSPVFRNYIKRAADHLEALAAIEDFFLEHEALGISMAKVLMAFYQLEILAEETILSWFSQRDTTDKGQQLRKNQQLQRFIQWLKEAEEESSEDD

[27] = target: Membrane-bound glycerophospholipid O-acyltransferase 1 (Homo sapiens) (UniProt Q6ZNC8)
[28] = target: EKC/KEOPS complex subunit LAGE3 (Homo sapiens) (UniProt Q14657)
[29] = target: Rapamycin-insensitive companion of mTOR (Homo sapiens) (UniProt Q6R327)
[30] = target: Glucocorticoid receptor (Homo sapiens) (UniProt P04150)
[31] = target: Cyclin-dependent kinase 2 (Homo sapiens) (UniProt P24941)
[32] = target: Forkhead box protein K1 (Homo sapiens) (UniProt P85037)
[33] = target: 14-3-3 protein zeta/delta (Homo sapiens) (UniProt P63104)
[34] = target: Small ribosomal subunit protein uS11 (Homo sapiens) (UniProt P62263)
[35] = target: 45 kDa calcium-binding protein (Homo sapiens) (UniProt Q9BRK5)
[36] = target: Serine/threonine-protein kinase 26 (Homo sapiens) (UniProt Q9P289)
[37] = target: Radixin (Homo sapiens) (UniProt P35241)
[38] = target: Serine/threonine-protein phosphatase 4 regulatory subunit 3A (Homo sapiens) (UniProt Q6IN85)
Chain of Serine/threonine-protein phosphatase 4 regulatory subunit 3A (Homo sapiens) (Q6IN85 whole entry): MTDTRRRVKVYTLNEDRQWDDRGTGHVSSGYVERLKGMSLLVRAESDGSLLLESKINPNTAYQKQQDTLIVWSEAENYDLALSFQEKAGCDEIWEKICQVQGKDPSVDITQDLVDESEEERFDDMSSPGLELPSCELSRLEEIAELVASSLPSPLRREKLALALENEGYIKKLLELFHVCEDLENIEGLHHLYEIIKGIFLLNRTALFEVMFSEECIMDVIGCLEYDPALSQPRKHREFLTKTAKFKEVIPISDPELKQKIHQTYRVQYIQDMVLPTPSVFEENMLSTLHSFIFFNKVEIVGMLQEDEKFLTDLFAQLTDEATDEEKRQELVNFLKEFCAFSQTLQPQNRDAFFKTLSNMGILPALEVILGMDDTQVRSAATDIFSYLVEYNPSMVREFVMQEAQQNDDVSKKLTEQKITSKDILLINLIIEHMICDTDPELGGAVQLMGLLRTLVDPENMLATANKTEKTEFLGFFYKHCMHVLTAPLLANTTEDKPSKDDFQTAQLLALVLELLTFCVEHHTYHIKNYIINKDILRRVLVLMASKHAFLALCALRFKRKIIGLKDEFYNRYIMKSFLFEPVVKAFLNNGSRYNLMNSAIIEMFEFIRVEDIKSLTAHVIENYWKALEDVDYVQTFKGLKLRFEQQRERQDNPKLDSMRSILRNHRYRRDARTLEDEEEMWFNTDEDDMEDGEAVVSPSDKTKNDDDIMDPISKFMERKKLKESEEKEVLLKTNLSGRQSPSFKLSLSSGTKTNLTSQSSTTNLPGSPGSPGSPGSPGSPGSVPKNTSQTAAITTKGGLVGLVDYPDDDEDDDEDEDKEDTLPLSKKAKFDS

[39] = target: Thioredoxin reductase 1, cytoplasmic (Homo sapiens) (UniProt Q16881)
[40] = target: Heterogeneous nuclear ribonucleoprotein R (Homo sapiens) (UniProt O43390)
[41] = target: Very-long-chain (3R)-3-hydroxyacyl-CoA dehydratase 3 (Homo sapiens) (UniProt Q9P035)
[42] = target: E3 ubiquitin-protein ligase listerin (Homo sapiens) (UniProt O94822)
[43] = target: ATP synthase peripheral stalk subunit OSCP, mitochondrial (Homo sapiens) (UniProt P48047)
[44] = target: Dolichyl-diphosphooligosaccharide--protein glycosyltransferase subunit MAGT1 (Homo sapiens) (UniProt Q9H0U3)
[45] = target: 3-hydroxyacyl-CoA dehydrogenase type-2 (Homo sapiens) (UniProt Q99714)
Chain of 3-hydroxyacyl-CoA dehydrogenase type-2 (Homo sapiens) (Q99714 whole entry): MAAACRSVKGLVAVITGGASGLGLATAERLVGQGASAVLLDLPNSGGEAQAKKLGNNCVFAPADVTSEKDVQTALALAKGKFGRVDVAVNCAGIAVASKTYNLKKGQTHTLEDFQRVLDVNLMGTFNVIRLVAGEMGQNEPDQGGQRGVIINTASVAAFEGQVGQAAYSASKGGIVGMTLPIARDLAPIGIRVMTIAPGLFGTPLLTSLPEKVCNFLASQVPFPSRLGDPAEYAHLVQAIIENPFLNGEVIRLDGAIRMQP

[46] = target: RNA-splicing ligase RtcB homolog (Homo sapiens) (UniProt Q9Y3I0)
[47] = target: Protein-L-isoaspartate(D-aspartate) O-methyltransferase (Homo sapiens) (UniProt P22061)
Chain of Protein-L-isoaspartate(D-aspartate) O-methyltransferase (Homo sapiens) (P22061 whole entry): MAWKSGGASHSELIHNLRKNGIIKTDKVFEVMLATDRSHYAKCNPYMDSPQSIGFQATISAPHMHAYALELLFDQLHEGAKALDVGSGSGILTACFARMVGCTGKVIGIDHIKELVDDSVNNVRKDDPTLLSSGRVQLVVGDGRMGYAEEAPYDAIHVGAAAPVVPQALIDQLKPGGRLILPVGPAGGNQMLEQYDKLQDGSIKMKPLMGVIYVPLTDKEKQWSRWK
Also: assay method not described here.

Chain of Vacuolar protein sorting-associated protein 51 homolog (Homo sapiens) (Q9UID3 whole entry): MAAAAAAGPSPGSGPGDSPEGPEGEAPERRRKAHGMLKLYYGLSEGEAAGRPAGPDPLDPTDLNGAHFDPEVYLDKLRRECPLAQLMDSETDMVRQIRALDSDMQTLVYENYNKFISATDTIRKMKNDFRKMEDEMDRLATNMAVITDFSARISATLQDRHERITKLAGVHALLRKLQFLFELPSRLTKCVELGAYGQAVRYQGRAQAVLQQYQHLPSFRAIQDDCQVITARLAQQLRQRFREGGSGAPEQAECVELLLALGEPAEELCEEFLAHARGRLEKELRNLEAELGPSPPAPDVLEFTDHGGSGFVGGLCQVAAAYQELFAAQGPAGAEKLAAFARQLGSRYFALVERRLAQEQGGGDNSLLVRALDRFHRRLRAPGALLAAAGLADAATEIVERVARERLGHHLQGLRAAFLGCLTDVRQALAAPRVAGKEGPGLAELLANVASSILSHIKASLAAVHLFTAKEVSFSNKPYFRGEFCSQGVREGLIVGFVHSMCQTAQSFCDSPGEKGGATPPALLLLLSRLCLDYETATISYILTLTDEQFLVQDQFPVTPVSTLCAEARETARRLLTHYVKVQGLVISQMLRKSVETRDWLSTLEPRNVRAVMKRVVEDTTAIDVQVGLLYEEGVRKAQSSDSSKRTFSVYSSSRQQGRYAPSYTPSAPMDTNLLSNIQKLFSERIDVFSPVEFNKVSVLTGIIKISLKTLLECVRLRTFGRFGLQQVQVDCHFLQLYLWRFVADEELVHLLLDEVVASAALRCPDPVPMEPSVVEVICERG

Cc1ccc(C(=O)Nc2cccc(C(F)(F)F)c2)cc1Nc1nc(-c2cccnc2)nc2c1cnn2C
ED50 [1]: 55.2 µM | ED50 [2]: 2.7 µM | ED50 [3]: 5.28 µM | ED50 [4]: 5.2 µM | ED50 [5]: 3.51 µM | ED50 [6]: 0.0685 µM | ED50 [7]: 21.2 µM | ED50 [8]: 44 µM | ED50 [9]: 12.8 µM | ED50 [10]: 0.00604 µM | ED50 [11]: 15.5 µM | ED50 [12]: 0.0198 µM | ED50 [13]: 18 µM | ED50 [14]: 112 µM | ED50 [15]: 0.0394 µM | ED50 [16]: 3.43 µM | ED50 [17]: 3.87 µM | ED50 [18]: 0.00816 µM | ED50 [19]: 0.00867 µM | ED50 [20]: 0.0735 µM | ED50 [21]: 0.0482 µM | ED50 [22]: 0.00163 µM | ED50 [23]: 0.00121 µM | ED50 [24]: 10.1 µM | ED50 [25]: 0.0567 µM | ED50 [26]: 5.15 µM | ED50 [27]: 0.9 µM | ED50 [28]: 131 µM | ED50 [29]: 10.1 µM | ED50 [30]: 53.3 µM | ED50 [31]: 0.0475 µM | ED50 [32]: 0.00359 µM | ED50 [33]: 0.00453 µM | ED50 [34]: 5.3 µM | ED50 [35]: 0.519 µM | ED50 [36]: 0.27 µM | ED50 [37]: 0.002 µM | ED50 [38]: 0.033 µM

Cc1ccc(C(=O)Nc2cccc(C(F)(F)F)c2)cc1Nc1nc(-c2cccnc2)nc2nn(C)cc12
ED50 [39]: 0.19 µM | ED50 [40]: 0.00823 µM | ED50 [41]: 0.0173 µM | ED50 [42]: 0.753 µM | ED50 [43]: 0.0206 µM | ED50 [44]: 0.686 µM | ED50 [45]: 0.0508 µM | ED50 [46]: 0.0383 µM | ED50 [47]: 0.393 µM
